According to US12545704B2, “Peptide for treating inflammation and wounds” (NIBEC CO., LTD., priority 2019, dated 2026):
No end group written: not given here.

Legend:
[1] = test system: DSS-induced acute inflammatory bowel disease; experiment: Therapeutic effect in animal model of DSS-induced acute inflammatory bowel disease; format: in vivo, ICR mice
Procedure: In order to confirm the therapeutic effect of the synthesized peptide in animals, acute inflammatory bowel disease was induced with DSS in ICR mice (Orient Bio), and simultaneously, the synthesized peptide was injected thereto. Inflammation was induced in mice using 5% DSS as drinking water for 7 days, and simultaneously, the synthesized peptide was IP-injected thereto. The normal group (Normal, n=6) was not treated with DSS, and in the untreated group (No treatment, n=6), only DSS was used, and no drug was injected. The positive control group (SAHA, Sigma-Aldrich, 25 mg/kg, n=6), the immunomodulatory control group (Anti-TNF-a antibody, Pfizer, 1 mg/kg, n=6), and the peptide of SEQ ID NO: 1 (50 mg/kg, n=6) were injected once daily. After 7 days, mice were sacrificed by CO2 hyperventilation, the colons were collected, and the lengths thereof were compared. Additionally, the tissue was fixed and processed to prepare a paraffin block, and H&E staining was performed to determine whether the intestinal tissue was damaged.

[2] = IVIS distribution of Cy5.5-labeled peptide in DSS-induced acute inflammatory bowel disease model; format: in vivo; conditions: IP injection, DSS mice, 30, 60 and 180 minutes, FIG. 7
Source text: In order to confirm distribution of the synthesized peptide to the colon, inflammation was induced in mice using 5% DSS as drinking water for 7 days, after which the Cy5.5-labeled peptide of SEQ ID NO: 1 was IP-injected thereto.

[3] = test system: type IV collagen; experiment: Slot blotting, selectivity to collagen types: type IV (Experimental Example 2); format: binding; conditions: peptide up to 100 μg/mL, FIG. 3
Procedure: (§1) In order to confirm the selectivity of peptides of SEQ ID NOS: 1 to 3 to collagen types, slot blotting was performed for types I, IV and VII collagen. The NC membrane was activated with TBST, and the peptides of SEQ ID NOS: 1, 2 and 3 were placed in each well at different concentrations (5, 10, 25, 50, and 100 μg/mL) and allowed to bind to the NC membrane in a vacuum for 2 hours. A 1% solution of each of types I, IV and VII collagen (MyBioSource, Inc., San Diego, CA, USA, MBS2018615) was added to the peptide-bound membrane and allowed to bind to the membrane in a vacuum for 2 hours. The membrane was washed with TBST, and the membrane to which the peptides and types I, IV, and VII collagen were attached was allowed to react with a primary rabbit anti-human type VII collagen antibody (MyBioSource, Inc., San Diego, CA, USA, MBS2004594) at a dilution ratio of 1:800 and with a secondary antibody goat anti-rabbit Ig G (BETHYL Lab., Montgomery, TX, USA, A90-116P) at a dilution ratio of 1:5000. The reacted membrane was washed with TBST, and a chemiluminescence test was performed using WEST-one.

[4] = test system: E-cadherin; experiment: Real-time RT-PCR of wound-healing marker E-cadherin in colonic epithelial cells; format: cell-based; conditions: Caco-2 cells; 50 and 100 μg/ml; 3 days; FIG. 4
Procedure: (§2) In order to confirm the expression level of the wound-healing marker in colonic epithelial cells (Caco-2 cell, ATCC® HTB-37™) by the peptide according to the present invention, colonic epithelial cells were dispensed in an amount of 5×10^6 cells/well in a 6-well plate and then cultured for 24 hours in DMEM (Dulbecco's Modified Eagle Medium, Gibco). The cells were treated with the peptides of SEQ ID NOS: 1, 2, and 3 at concentrations of 50 and 100 μg/ml and then cultured for up to 3 days. After 3 days, the cells were harvested and the gene expression levels of E-cadherin protein, which is highly expressed in colonic epithelial cells, and ZO-1 protein, which is highly expressed at the tight junction between colonic epithelial cells, were measured through real-time RT-PCR.
(§3) RNA was extracted from the obtained cells using TRIzol, and cDNA was synthesized using a kit from Thermo Scientific (cat. No. K1641). The same amount of cDNA was amplified by 40 cycles at 95° C.-60° C. using a SYBR green PCR master mix and a StepOnePlus™ Real-Time PCR System available from Applied Biosystems, and the ΔΔct values of individual groups were compared. The nucleotide sequences of the PCR primers used for amplification of each gene are as follows.

[5] = target: T1, type VII collagen (Homo sapiens, UniProt Q02388); experiment: Slot blotting, selectivity to collagen types: type VII (Experimental Example 2); format: binding
T1 construct: purchased MyBioSource, Inc. MBS2018615
Procedure: as §1

[6] = test system: colonic epithelial cells (Caco-2 cell); experiment: Proliferation of colonic epithelial cells (CCK-8); format: cell-based; conditions: 100 μM, 3rd day, FIG. 5
Procedure: In order to confirm the proliferation and migration in colonic epithelial cells (Caco-2 cell, ATCC® HTB-37™) by the peptide according to the present invention, the cells were dispensed in an amount of 5×10^3 cells/well in a 96-well plate and then cultured for 24 hours in DMEM (Dulbecco's Modified Eagle Medium, Gibco). The peptides (SEQ ID NOS: 1, 2, and 3) were dispensed at a concentration of 100 μM in the cells and then cultured for up to 3 days at intervals of 1 day. The cell count was measured using a CCK-8 (Cell Counting Kit-8, CK04, Dojindo Lab.). After 1, 2, and 3 days, the medium containing the peptide was removed, 10% of a CCK-8 solution was added to fresh DMEM, and 100 μl thereof was then dispensed. After 1 hour and 30 minutes, absorbance was measured at 450 nm.

[7] = test system: Caco-2 cells; experiment: Scratch migration of colonic epithelial cells; format: cell-based; conditions: Caco-2 scratch, 100 μM, FIG. 6
Procedure: In order to measure cell migration ability, Caco-2 cells (1×10^6 cells) were placed in a 6-well plate and cultured in DMEM supplemented with 10% fetal bovine serum (FBS) and 1% antibiotic-antimycotic solution (Gibco, Grand Island, N.Y., USA). The cells were washed with PBS and allowed to stand overnight in a medium containing 2% FBS. The central portion of the cell layer was scratched using a sterile 200 μl plastic pipette tip. The scratched cell layer was washed twice with PBS to remove unadhered cells. Each of the peptides of SEQ ID NOS: […] at a concentration of 100 μM to the medium, followed by culture for up to 48 hours. The extent of cell migration toward the center from the scratched edges was measured using an Olympus CKX41 inverted microscope (magnification: ×20).

[8] = test system: ZO-1; experiment: Real-time RT-PCR of wound-healing marker ZO-1 in colonic epithelial cells; format: cell-based; conditions: Caco-2 cells; 50 and 100 μg/ml; 3 days; FIG. 4
Procedure: as §2, §3

[9] = target: T2, type I collagen (Homo sapiens, UniProt P02452+P08123); experiment: Slot blotting, selectivity to collagen types: type I (Experimental Example 2); format: binding; conditions: peptide at 5, 10, 25, 50 and 100 μg/mL, FIG. 3
T2 construct: purchased MyBioSource, Inc
Procedure: as §1

[10] = target: T3, integrin beta 1 (Mus musculus, UniProt P09055); experiment: Confocal co-localization of Cy5.5-labeled peptide with integrin beta 1 in colon tissue; format: in vivo, mice; conditions: 1 hour after injection, FIG. 11
T3 construct: from tissue; host or cells: colon of mice with DSS-induced colitis
Source text: In order to confirm co-localization of synthesized peptide to the colon, inflammation was induced in mice using 5% DSS in drinking water for 7 days, followed by the cy5.5-labeled peptide of SEQ ID NO: 1 was […] thereto. An hour after injection, each mouse was sacrificed and the colon tissue was isolated for analysis. Excised colons were fixed with 4% paraformaldehyde, and made frozen tissue block with Tissue-Tek® O.C.T. compound (4583, Sakura). Frozen tissue block was sectioned using clinical cryostat (CM1950, Leica) and placed on microscope slides.
Each sectioned tissue slides were stained for immunofluorescence. In brief, sectioned slides were permeabilized with 0.5% Triton X-100 (9036-19-5, Sigma-Aldrich) in PBS for 10 min. Next, 5% BSA in PBS were treated 30 minutes for blocking, followed by overnight incubation of anti-integrin beta 1 diluted in blocking buffer. After washing the slides, Alexa Fluor 488 conjugated anti-mouse secondary antibody (A-11001, Thermo Fisher Scientific) was diluted and incubated for an hour, and DAPI staining. Slides were mounted for imaging in confocal microscopy (LSM700, Carl Zeiss).

[11] = test system: DSS-induced chronic inflammatory bowel disease; experiment: Therapeutic effect in animal model of DSS-induced chronic inflammatory bowel disease; format: in vivo, ICR mice
Procedure: In order to confirm the therapeutic effect of the synthesized peptide in animals, chronic inflammatory bowel disease was induced with DSS in ICR mice (Orient Bio). 1.5% DSS was used as drinking water for 7 days, water not containing DSS was provided for the next 7 days, and 1.5% DSS was used as drinking water for the next 7 days (FIG. 9A). Thereafter, the peptide of SEQ ID NO: 1 was administered through SC injection. The normal group (Normal, n=9) was not treated with DSS, and the untreated group (Untreated, n=9) was treated only with DSS, and no drug was injected. The positive control group (Infliximab, 5 mg/kg, n=9) and the peptide of SEQ ID NO: 1 (30 mg/kg, n=9) were injected once daily for 14 days. 28 days after the start of DSS administration, the animals were sacrificed by CO2 hyperventilation, the colons were collected, and the lengths thereof were compared. Additionally, the tissue was fixed and processed to prepare a paraffin block, and H&E staining was performed to determine whether the intestinal tissue was damaged.

T1 sequence (Q02388 17-2944): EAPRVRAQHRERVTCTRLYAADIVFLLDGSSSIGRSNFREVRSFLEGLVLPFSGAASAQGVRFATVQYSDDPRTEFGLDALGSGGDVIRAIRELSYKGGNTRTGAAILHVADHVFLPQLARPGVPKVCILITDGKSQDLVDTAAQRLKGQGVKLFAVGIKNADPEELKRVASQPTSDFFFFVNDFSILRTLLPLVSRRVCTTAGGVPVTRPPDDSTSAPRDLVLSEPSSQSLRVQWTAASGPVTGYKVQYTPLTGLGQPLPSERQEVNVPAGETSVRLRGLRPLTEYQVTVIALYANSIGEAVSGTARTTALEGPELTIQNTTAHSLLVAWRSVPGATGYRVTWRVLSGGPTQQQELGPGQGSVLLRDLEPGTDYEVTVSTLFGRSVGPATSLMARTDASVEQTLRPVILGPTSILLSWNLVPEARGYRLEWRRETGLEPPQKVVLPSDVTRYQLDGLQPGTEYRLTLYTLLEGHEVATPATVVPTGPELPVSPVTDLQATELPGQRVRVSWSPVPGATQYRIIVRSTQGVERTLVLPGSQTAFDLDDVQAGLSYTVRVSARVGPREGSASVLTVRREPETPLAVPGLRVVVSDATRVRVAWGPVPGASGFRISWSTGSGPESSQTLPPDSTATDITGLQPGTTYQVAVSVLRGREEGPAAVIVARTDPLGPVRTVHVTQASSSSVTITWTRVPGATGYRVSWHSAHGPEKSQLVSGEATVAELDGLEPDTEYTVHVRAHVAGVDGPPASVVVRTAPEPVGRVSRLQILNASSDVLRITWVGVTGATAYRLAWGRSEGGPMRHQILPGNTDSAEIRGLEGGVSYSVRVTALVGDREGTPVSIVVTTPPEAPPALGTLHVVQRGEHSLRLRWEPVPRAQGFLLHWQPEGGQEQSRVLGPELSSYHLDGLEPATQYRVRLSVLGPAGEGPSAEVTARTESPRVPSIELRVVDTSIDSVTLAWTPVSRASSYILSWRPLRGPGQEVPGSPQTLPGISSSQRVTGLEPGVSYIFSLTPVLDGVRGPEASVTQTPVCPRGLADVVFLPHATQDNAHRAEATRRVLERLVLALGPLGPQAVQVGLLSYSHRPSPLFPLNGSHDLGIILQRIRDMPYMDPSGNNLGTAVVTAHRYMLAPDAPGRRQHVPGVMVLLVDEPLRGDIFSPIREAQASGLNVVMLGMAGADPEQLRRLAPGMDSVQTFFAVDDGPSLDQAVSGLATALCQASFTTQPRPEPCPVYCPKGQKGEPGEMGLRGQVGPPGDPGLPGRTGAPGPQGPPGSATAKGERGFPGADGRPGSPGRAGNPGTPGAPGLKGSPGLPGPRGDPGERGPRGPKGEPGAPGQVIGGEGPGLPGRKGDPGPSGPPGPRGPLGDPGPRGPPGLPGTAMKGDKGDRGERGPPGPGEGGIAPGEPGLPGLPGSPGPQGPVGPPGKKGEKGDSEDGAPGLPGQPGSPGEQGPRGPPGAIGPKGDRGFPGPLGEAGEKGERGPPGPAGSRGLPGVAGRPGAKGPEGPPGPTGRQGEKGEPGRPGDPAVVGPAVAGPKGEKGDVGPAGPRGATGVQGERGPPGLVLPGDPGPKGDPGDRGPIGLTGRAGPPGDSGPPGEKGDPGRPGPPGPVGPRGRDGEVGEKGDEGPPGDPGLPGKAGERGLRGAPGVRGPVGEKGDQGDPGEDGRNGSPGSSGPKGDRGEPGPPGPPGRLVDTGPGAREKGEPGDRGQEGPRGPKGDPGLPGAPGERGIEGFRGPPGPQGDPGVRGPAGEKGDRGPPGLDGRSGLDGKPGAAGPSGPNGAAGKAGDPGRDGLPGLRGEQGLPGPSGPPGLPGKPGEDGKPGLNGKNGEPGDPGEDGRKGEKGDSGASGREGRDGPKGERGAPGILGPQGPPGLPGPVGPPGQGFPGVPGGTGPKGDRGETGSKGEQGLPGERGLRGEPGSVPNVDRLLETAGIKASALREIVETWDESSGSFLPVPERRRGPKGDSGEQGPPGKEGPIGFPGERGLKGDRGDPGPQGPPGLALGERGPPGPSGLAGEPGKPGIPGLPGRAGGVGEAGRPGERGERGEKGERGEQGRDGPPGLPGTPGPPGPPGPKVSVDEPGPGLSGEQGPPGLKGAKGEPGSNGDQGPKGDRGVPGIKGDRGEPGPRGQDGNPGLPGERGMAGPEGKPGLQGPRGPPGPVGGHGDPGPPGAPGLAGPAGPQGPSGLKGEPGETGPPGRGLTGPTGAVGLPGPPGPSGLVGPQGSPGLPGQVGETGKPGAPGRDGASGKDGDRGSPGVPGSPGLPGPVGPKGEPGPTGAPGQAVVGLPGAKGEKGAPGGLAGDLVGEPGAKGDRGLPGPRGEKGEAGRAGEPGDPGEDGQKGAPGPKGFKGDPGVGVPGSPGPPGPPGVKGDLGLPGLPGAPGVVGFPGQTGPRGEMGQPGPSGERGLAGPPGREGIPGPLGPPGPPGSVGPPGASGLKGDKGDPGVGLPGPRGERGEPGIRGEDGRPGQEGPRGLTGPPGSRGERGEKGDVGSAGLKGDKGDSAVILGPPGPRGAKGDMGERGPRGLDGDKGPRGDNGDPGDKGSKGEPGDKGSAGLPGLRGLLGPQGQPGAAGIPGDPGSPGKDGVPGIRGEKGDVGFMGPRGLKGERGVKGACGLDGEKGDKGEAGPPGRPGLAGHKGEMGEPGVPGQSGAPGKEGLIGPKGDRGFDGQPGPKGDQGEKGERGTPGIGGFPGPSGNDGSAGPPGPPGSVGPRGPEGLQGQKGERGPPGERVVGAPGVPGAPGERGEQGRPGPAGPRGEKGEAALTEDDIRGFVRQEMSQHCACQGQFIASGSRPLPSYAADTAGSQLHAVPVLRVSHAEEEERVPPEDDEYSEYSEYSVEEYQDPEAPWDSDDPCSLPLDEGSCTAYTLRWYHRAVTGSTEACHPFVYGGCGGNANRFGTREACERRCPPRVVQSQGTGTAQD
T3 sequence (P09055 21-798): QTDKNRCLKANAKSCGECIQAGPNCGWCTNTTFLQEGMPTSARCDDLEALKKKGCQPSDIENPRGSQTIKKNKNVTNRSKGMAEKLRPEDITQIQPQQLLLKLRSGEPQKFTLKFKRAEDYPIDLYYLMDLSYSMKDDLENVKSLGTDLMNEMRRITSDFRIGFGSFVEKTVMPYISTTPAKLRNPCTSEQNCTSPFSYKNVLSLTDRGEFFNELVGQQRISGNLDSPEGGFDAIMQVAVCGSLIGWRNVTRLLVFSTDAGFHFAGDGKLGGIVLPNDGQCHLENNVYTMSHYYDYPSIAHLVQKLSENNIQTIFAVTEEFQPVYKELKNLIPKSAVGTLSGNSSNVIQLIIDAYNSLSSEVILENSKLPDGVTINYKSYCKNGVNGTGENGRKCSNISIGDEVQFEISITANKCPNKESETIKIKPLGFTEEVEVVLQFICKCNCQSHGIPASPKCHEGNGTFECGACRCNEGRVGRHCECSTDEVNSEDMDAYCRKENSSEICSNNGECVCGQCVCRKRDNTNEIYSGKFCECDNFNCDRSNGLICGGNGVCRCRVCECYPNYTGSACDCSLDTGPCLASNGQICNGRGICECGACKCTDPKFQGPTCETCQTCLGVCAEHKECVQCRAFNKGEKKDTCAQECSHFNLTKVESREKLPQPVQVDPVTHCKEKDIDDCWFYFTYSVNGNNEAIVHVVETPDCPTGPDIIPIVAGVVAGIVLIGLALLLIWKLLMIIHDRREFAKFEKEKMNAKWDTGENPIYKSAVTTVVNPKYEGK

O=C(CCCCCCC(=O)Nc1ccccc1)NO [SAHA]
colon length ([1]; 5% DSS 7 days, IP once daily, SEQ ID NO: 1 50 mg/kg, SAHA 25 mg/kg, antibody 1 mg/kg, p<0.05 vs untreated, FIG. 8): maintained the colon length
inflammatory cells in the intestinal mucosa (H&E histology) ([1]; acute DSS model, FIG. 8 part c): significantly decreased
villi structure (H&E histology) ([1]; acute DSS model, FIG. 8 part c): villi structure was maintained well

Cy5.5 [reference compound]
fluorescence in small intestine and colon (IVIS) [2]: almost no fluorescence was observed at 180 minutes

RPRYYLYKHAYFYPHLKRFP (human bone sialoprpotein II 41-60) [SEQ ID NO: 2, Human bone sialoprotein II 41-60]
binding to type IV collagen [3]: did not bind
gene expression of E-cadherin [4]: increased with an increase in the concentration of the peptide
selectivity to type VII collagen versus types I and IV collagen [5]: higher selectivity to type VII collagen
peptide concentration at which binding to type VII collagen was observed ([5]; peptide at 5, 10, 25, 50 and 100 μg/mL, FIG. 3): at least 20 μg/mL
cell proliferation rate compared to the control group (cells not treated with the peptide) [6]: 56%
migration area ([7]; 2nd day): 75%
cell migration compared to cells not treated with the peptide ([7]; up to 48 hours): increased cell migration
gene expression of ZO-1 [8]: increased with an increase in the concentration of the peptide
peptide concentration at which binding to type I collagen was observed [9]: 50 µg/mL

YGLRSKSKKFRRPDIQYPDAT-NH2 (C-terminus assumed) [SEQ ID NO: 1]
localization of peptide in DSS-induced mouse colon ([10]; 5% DSS 7 days): detected in colon tissue
localization of peptide in normal colon [10]: does not show any localization
fluorescence in small intestine and colon (IVIS) [2]: red fluorescence was constantly observed in the small intestine and colon from the initial 30 minutes to 180 minutes

infliximab
inflammatory cells in the intestinal mucosa (H&E histology) ([11]; FIG. 9G): inflammatory cells in the intestinal mucosa were observed
villi structure (H&E histology) ([11]; FIG. 9G): some improvement compared to the untreated group, but villous damage
colon length ([11]; SEQ ID NO: 1 30 mg/kg SC, infliximab 5 mg/kg, once daily 14 days, p<0.05 vs untreated, FIG. 9D): maintained the colon length
